According to publication PMC9636434, “Discovery of small molecule agonists of the Relaxin Family Peptide Receptor 2” (Communications Biology, 2022):
Where “and” joins values, the source holds several entries; their conditions need not be identical. Identical values can stand only once. Like-named read-outs stand apart in the source and are kept apart here.

Columns and labels:
[1] = target: chimera RXFP1-2 (extracellular domain of RXFP1, transmembrane domain of RXFP2) (Homo sapiens, UniProt Q8WXD0); assay: HTRF cAMP assay in HEK293T cells transiently transfected with chimera RXFP1-2; type: cell-based; details: for Emax: HEK-293T
Procedure: (§1) Fig. 2 6641 is an allosteric agonist of RXFP2. a HEK-RXFP2 cells co-treated with serial dilutions of INSL3 B dimer antagonist and 30 nM INSL3 or 0.28 µM 6641. HTRF cAMP dose-response inhibition curves were normalized to activity without antagonist co-treatment as 0% inhibition. b HTRF cAMP assay in HEK293T cells transiently transfected with WT or chimeric receptors. Chimera RXFP2-1 contains the extracellular domain of RXFP2 and the transmembrane domain of RXFP1, while chimera RXFP1-2 contains the extracellular domain of RXFP1 and the transmembrane domain of RXFP2. For each receptor, cAMP response induced by INSL3 and 6641 was normalized to FSK (2 µM) as 100% efficacy and DMSO vehicle as 0% efficacy. Emax and EC50 were calculated using four parameter nonlinear fit dose-response curves. Results are expressed as mean ± SEM of 3 independent experiments. Diagrams of the chimeric receptors were produced using GPCRdb.org[58], [59].
(§2) Complementary RXFP2-1 and RXFP1-2 chimeric receptors were used to further investigate the involvement of the RXFP2 extracellular and transmembrane domains on 6641 activity. RXFP2-1 has the extracellular domain of RXFP2 and transmembrane domain of RXFP1, and RXFP1-2 is its complement.
(§3) The HTRF Gs dynamic cAMP assay kit (CisBio, Bedford, MA) was used to measure intracellular cAMP accumulation in HEK293T cells (ATCC, Manassas, VA)[56]. […] The cell stock was verified mycoplasma free and authenticated by ATCC. Transient transfection was accomplished by treating cells in a 6-well plate with a mixture of 2 μg plasmid and 6 μL Lipofectamine 2000 (Invitrogen, Waltham, MA) per manufacturer’s protocol and incubating overnight. For cAMP measurement in 96-well format, HEK293T cells stably transfected with human RXFP2 (HEK-RXFP2), human RXFP1 (HEK-RXFP1), mouse Rxfp1 (HEK-Rxfp1) or transiently transfected with human RXFP1-RXFP2 chimeric receptors were seeded between 7500 and 30,000 cells per well, depending on cell line responsiveness, in serum-free DMEM medium and incubated overnight at 37 °C, 5% CO2. After 18 h, cells were treated with a titration of compound, 2 μM forskolin, or DMSO vehicle. Control wells were also treated with a titration of INSL3 (Phoenix Pharmaceuticals, Burlingame, CA) or human recombinant relaxin 2 (Peprotech, Cranbury, NJ). For the RXFP2 antagonist experiment, cells were co-treated with 0.28 μM compound or 30 nM INSL3 and a titration of the INSL3 B dimer antagonist[38],[39]. For the INSL3 allosteric modulation experiment, cells were co-treated with 0.025, 0.0025, or 0.00025 μM of compound and a titration of INSL3. Cells were incubated for 1 h at 37 °C, 5% CO2, and then kit cAMP-d2 and anti-cAMP antibody were added per manufacturer protocol. Plates were incubated for 1 h at room temperature and the signal was read on a CLARIOstar plate reader (BMG Labtech, Ortenberg, Germany) at 665 and 620 nm emission wavelengths.

[2] = tested on: chimera RXFP1-2 (extracellular domain of RXFP1, transmembrane domain of RXFP2); assay: as above; type: cell-based, human
Procedure: as §1, §2, §3

[3] = target: T1, human ADORA1 (Homo sapiens, UniProt P30542); assay: GloSensor cAMP inhibition assay in ADORA1 transiently transfected HEK293T cells; type: cell-based; details: for RLU: replicates (1)-(4)
T1 sequence (P30542 1-326): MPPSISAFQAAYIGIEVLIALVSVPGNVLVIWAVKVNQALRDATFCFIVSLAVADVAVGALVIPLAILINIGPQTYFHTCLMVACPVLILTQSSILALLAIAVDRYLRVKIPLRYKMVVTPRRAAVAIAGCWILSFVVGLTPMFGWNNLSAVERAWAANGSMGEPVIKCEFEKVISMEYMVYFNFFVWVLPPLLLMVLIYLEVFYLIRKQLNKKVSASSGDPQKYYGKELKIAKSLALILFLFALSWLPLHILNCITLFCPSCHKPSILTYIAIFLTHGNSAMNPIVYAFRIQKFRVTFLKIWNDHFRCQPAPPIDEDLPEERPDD
Procedure: β-arrestin is an important GPCR adaptor protein that mediates several receptor processes including signaling, desensitization, and trafficking. […] GPCR-mediated β-arrestin recruitment for a panel of 320 human GPCRs was studied in transiently transfected HTLA cells treated with 10 µM compound. The results for all 320 GPCRs tested are summarized in Supplementary Data 1. […] ADORA1 activation by an agonist results in Gαi protein binding, an inhibition of adenylate cyclase and, therefore, a decrease in the cAMP concentration.
Experiments to analyze the cAMP response in RXFP3, RXFP4, and ADORA1 transiently transfected HEK293T cells was performed in the National Institute of Mental Health’s Psychoactive Drug Screening Program, Contract #HHSN-271-2018-00023-C (NIMH PDSP).
ADORA1 activation. cAMP in HEK293T cells transiently transfected with human
ADORA1 was induced by treatment with 0.1 µM of isoproterenol. cAMP inhibition is
Results are reported as raw
RLU values and represent the mean ± SEM of 4 technical replicates.
(1 picture or pasted object on this page, not shown here)

[4] = 6641, individual experiments, read-out: EC50 (1)-(3)
[5] = 10 mg/kg PO 3 times per week, 8 weeks

chimera RXFP1-2 (extracellular domain of RXFP1, transmembrane domain of RXFP2) (Homo sapiens, UniProt Q8WXD0), sequence (Q8WXD0 417-754 limits assumed, stated change not applied): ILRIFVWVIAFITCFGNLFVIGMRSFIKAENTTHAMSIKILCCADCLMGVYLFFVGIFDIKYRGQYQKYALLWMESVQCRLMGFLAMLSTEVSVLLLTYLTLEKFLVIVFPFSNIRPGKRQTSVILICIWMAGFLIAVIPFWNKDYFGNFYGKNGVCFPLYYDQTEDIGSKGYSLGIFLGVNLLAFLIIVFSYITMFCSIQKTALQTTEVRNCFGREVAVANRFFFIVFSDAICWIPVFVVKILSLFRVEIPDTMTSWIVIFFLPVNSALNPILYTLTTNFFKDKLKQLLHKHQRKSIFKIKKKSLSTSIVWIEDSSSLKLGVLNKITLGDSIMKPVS
chimera RXFP1-2 (extracellular domain of RXFP1, transmembrane domain of RXFP2) (Homo sapiens, UniProt Q8WXD0), sequence (Q9HBX9 1-409, stated change not applied, further chain): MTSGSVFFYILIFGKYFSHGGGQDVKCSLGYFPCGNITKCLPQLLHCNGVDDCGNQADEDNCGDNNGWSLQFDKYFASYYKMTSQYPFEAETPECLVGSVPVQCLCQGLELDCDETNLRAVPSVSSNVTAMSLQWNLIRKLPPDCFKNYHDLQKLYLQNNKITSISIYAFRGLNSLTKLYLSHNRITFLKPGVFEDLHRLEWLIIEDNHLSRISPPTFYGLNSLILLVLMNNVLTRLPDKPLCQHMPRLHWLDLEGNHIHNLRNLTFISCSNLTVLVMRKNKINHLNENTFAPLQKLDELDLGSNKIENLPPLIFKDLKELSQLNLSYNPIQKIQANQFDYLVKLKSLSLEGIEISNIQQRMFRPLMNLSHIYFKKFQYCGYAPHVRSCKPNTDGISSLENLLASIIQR
chimera RXFP1-2 (extracellular domain of RXFP1, transmembrane domain of RXFP2), sequence (Q8WXD0 417-754 limits assumed, change not shown): as the sequence (Q8WXD0 417-754 limits assumed, stated change not applied) above
chimera RXFP1-2 (extracellular domain of RXFP1, transmembrane domain of RXFP2), sequence (Q9HBX9 1-409, change not shown, further chain): as the sequence (Q9HBX9 1-409, stated change not applied, further chain) above

Q: What does the source list for `O=C1Nc2ccc(-c3cc(C(F)(F)F)cc(C(F)(F)F)c3)cc2C(=O)N2CCN(C(=O)COc3ccc(OC(F)(F)F)cc3I)C[C@@H]12` [compound 6641]?
A: EC50 [1, 4]: 0.019 µM and 0.014 µM; Emax ([1]; individual experiments, FSK (2 µM) = 100% efficacy, read-out: Emax (1)-(3)): 96.5%; Emax ([1]; mean (± SEM) of 3, FSK (2 µM) = 100% efficacy, read-out: Emax (AVERAGE)): 96.47 ± 0.43%; EC50 [2, 4]: 0.017 µM; Emax (1)-(3) ([2]; individual experiments, FSK (2 µM) = 100% efficacy): 95.72% and 97.22%; RLU ([3]; Log [M] -5): 501.695 RLU and 432.184 RLU and 479.802 RLU; RLU ([3]; Log [M] -5.52): 440.941 RLU and 426.71 RLU and 354.463 RLU and 361.031 RLU; RLU ([3]; Log [M] -6): 417.406 RLU and 427.258 RLU and 437.11 RLU and 429.447 RLU; RLU ([3]; Log [M] -6.52): 436.015 RLU and 453.53 RLU and 363.767 RLU and 397.155 RLU; RLU ([3]; Log [M] -7): 393.323 RLU and 486.917 RLU and 461.192 RLU and 440.394 RLU; RLU ([3]; Log [M] -7.52): 405.912 RLU and 426.71 RLU and 325.454 RLU and 420.142 RLU; RLU ([3]; Log [M] -8): 517.02 RLU and 436.015 RLU and 373.619 RLU and 451.34 RLU; RLU ([3]; Log [M] -8.52): 377.126 RLU and 431.072 RLU and 331.699 RLU and 385.644 RLU; RLU ([3]; Log [M] -9): 420.424 RLU and 419.005 RLU and 360.091 RLU and 409.777 RLU; RLU ([3]; Log [M] -9.52): 407.648 RLU and 406.938 RLU and 409.777 RLU and 342.346 RLU; cAMP inhibition in ADORA1-HEK293T transfected cells ([3]; cAMP induced by 0.1 µM isoproterenol): failed to detect any significant changes; body or organ (liver, kidney) weight vs vehicle [5]: No changes; histological analysis of livers and kidneys [5]: did not show any changes in cell morphology; Left Kidney weight (Left Kidney, after 8-week oral treatment, individual mice): 0.4912 and 0.4654 and 0.4705 and 0.5626 and 0.5314 and 0.5304 and 0.5976 and 0.5317 and 0.5347 and 0.5015 and 0.5707 and 0.5055 and 0.4688 and 0.4947 and 0.545; Liver weight (Liver, after 8-week oral treatment, individual mice): 4.014 and 3.487 and 3.8235 and 3.754 and 3.582 and 3.355 and 4.71 and 3.617 and 3.875 and 3.519 and 3.904 and 3.698 and 3.86 and 3.544 and 3.928; Right Kidney weight (Right Kidney, after 8-week oral treatment, individual mice): 0.5699 and 0.5019 and 0.5734 (2×) and 0.5889 and 0.5665 and 0.5265 and 0.5931 and 0.5579 and 0.5793 and 0.6089 and 0.5717 and 0.4908 and 0.5191 and 0.5352; Body weight (day 18, individual mice): 19.85 g and 17.73 g and 17.98 g and 16.95 g and 18.38 g and 18.83 g and 21.28 g and 19.38 g and 20.27 g and 20.03 g and 16.32 g and 20.68 g and 19.45 g and 18.87 g and 17.54 g; Body weight (day 21, individual mice): 19.93 g and 18.04 g and 17.94 g and 17.08 g and 17.98 g and 19.29 g and 21.67 g and 19.33 g and 20.02 g and 19.71 g and 16.43 g and 21.48 g and 19.84 g and 19.3 g and 18.07 g; Body weight (day 25, individual mice): 20.1 g and 18.01 g and 17.55 g and 16.7 g and 18.33 g and 19.06 g and 21.44 g and 20.16 g and 20.44 g and 20.28 g and 16.93 g and 21.61 g and 19.73 g and 19.34 g and 18.63 g; Body weight (day 28, individual mice): 19.97 g and 17.83 g and 17.52 g and 17.01 g and 18.4 g and 18.9 g and 22.31 g and 19.96 g and 21.2 g and 20.35 g and 17.55 g and 21.63 g and 20.55 g and 19.62 g and 18.84 g; Body weight (day 32, individual mice): 20.73 g and 18.54 g and 18.23 g and 16.58 g and 19.25 g and 19.78 g and 22.35 g and 20.74 g (2×) and 21.45 g and 17.18 g and 20.72 g and 20.18 g and 19.42 g and 18.61 g; Body weight (day 35, individual mice): 20.28 g and 18.14 g and 18.03 g and 17.15 g and 19.17 g and 19.71 g and 22.83 g and 20.57 g and 20.92 g and 19.8 g and 17.11 g and 22.36 g and 20.66 g and 20.25 g and 18.8 g; Body weight (day 39, individual mice): 20.17 g and 18.1 g and 17.93 g and 17.63 g and 19.64 g and 20.24 g and 22.43 g and 20.72 g and 21.92 g and 20.95 g
